One data set has as its system HL-60 cells. Description: HL-60 cell differentiation assay (nonspecific esterase expression). In kind it is cell-based. Conditions: for HL-60 differentiation activity (in words): pure vitamin D compounds; for % differentiation: 48 hrs. The source says:
This test can be utilized to assess the vitamin D content of plant extracts after converting the glycosides and other hydroxylated forms of vitamin D to 1,25-(OH)2 D. One can achieve this by following the procedure: [drawing 2] Glycosidases cleave vitamin D glycosides to the aglycone form (free steroid form). […] This can be again extracted into chloroform phase and redissolved in ethanol and tested in the HL-60 cell differentiation assay. Using this procedure, the glycosylated and nonglycosylated forms of 25-D and 1,25-(OH)2 D of both vitamin D2 and D3 can be quantitated in HL-60 cell differentiation assay.
a. Plant Extract preparation: The plant extracts are prepared by extracting the dry plant powders with ethanol or other solvents by stirring 1 part of the plant material with 5 to 10 parts of the solvent for 3 to 18 hours at room temperature. Suitable solvents are described hereinbelow. The extracts are clarified by filtration, then dried by evaporation to obtain a dried plant extract.
b. Treatment of Dried Plant Extracts with Glycosidase: 50 mg of dried plant extract are resuspended in 4 ml citrate-phosphate buffer and incubated overnight with a glycosidase enzyme (e.g., from an almond meal extract). After incubation, the mixture is extracted with chloroform. The chloroform phase containing the nonglycosylated vitamin D compounds is dried and resuspended in ethanol at a concentration of 5 mg/ml of ethanol.
c. Hydroxylase Treatment of product of step (b) (Non-Glycosylated Vitamin D Compounds): Human keratinocytes in culture express high amounts of 25(OH) vitamin D 1-a hydroxylase activity. For converting into the 1,25-(OH)2 D, which is detected by the product of step (b) in the HL-60 assay, is treated with a keratinocyte homogenate for 1 hour at 37° C. (50 μl of the product of step b with 1 ml of cell homogenate containing 100-200 μg cell protein). After the treatment, the mixture is extracted with chloroform:methanol (1:1), the chloroform phase is dried down, resuspended in ethanol and used in the HL-60 cell differentiation assay.
d. HL-60 Cell Differentiation Assay: The differentiation of HL-60 cells can be assessed by a simple cytochemical method for the expression of non-specific esterase activity (expressed only in the differentiated monocyte/macrophage phenotype) using α-naphthyl acetate as a substrate. HL-60 cell line is obtained (e.g. from American Type Culture Collection (ATCC)) and cultures are established in the laboratory (e.g. using RPMI medium containing 20% fetal calf serum (FCS)). For incubation with the different plant extracts, cells are washed in phosphate buffered saline (PBS), then resuspended in RPMI medium containing 10% FCS and plated at a density of 750,000 cells per 1 ml in 6 well plates. The plates are then treated with either standard 1,25-(OH)2 D (0.1 to 100 nM) or the different plant extracts in ethanol, using a maximum ethanol concentration of 5 μl/ml of medium. The cells are treated for 48 hrs before processing for the esterase cytochemical assay.
Expression of nonspecific esterase in HL-60 cells is determined after mounting the cells onto slides using Cytospin. The slides are then fixed in citrateacetone-methanol for 1 min at room temperature, washed in deionized water and air dried for 20 min. The substrate solution for esterase is prepared according to the procedure provided by Sigma by adding 1 capsule of Fast Blue RR salt to 50 ml Trizma buffer (pH 7.6)and 2 ml of α-naphthyl acetate solution. The slides are incubated at 37° C. in this solution for 30 min in the dark. The slides are washed for 3 min in water, counterstained using Mayer's Hematoxylin solution air dried and viewed under microscope. The number of cells showing dark brown precipitate indicating esterase activity is counted and calculated as a percent of the total number of cells in 6 different areas of the slide (approximately 500 total cells).

For data set [1], the system named is vitamin D binding protein. Conditions: 25-D = 100%; cited from earlier work.
Another data set has as its system keratinocyte. Particulars: cited from earlier work.
Data set [2] deals with adult human keratinocytes. Description: cornified envelope formation of adult human keratinocytes. In kind it is cell-based. Particulars: Table 6; no almond meal extract, 48 hrs; 1,25-OH2 D at 1 nM.
Experimental: In this method, keratinocytes were treated with the various extracts dissolved in ethanol (as described for the HL-60 assay) for 48 hrs in the presence of 5 uCi of 35S methionine included in the medium. The labelled methionine gets incorporated into the newly synthesized proteins during this 48 hr. period, including the proteins required for the formation of cornified envelopes. […] This treatment allows Ca to flow into the cells, maximally activate the enzyme transglutaminase and crosslinks all the labelled cornified envelope precursor proteins to form labelled cornified envelopes. The cells were then dissolved in 2%SDS/40 mM DTT, and the amount of insoluble cornified envelopes was quantitated by scintillation counting after separating from the soluble proteins by filtration on 0.2 micron filters.
Data set [3] deals with Cultured Human Keratinocytes. Particulars: cited from earlier work.

Entries after “also recorded” stand apart in the source; their conditions may differ.

As to `C=C1/C(=C\C=C2/CCC[C@]3(C)[C@@H]([C@H](C)CCC(O)C(C)(C)O)CC[C@@H]23)C[C@@H](O)CC1O` (stereo partly drawn) [1,24,25-D(OH)3], the “HL-60 differentiation activity (in words)” value in the data set with HL-60 cells was “inactive at all concentrations”.
For the compound `C=C1CC[C@H](O)C/C1=C/C=C1\CCC[C@]2(C)[C@@H]([C@H](C)CCC(O)C(C)(C)O)CC[C@@H]12` (stereo partly drawn) [24,25(OH)2 D], in data set [1], the “detection (cross-reactivity) in vitamin D binding assay” value (from here on “detection (cross-reactivity)”) is listed as 70%.
Regarding Vitamin D, the “HL-60 differentiation activity (in words)” value in the data set on HL-60 cells (listed as non-hydroxylated vitamin D) is “inactive at all concentrations”; in the data set with HL-60 cells (listed as nonhydroxylated vitamin D) it was “do not induce its differentiation”. The “detection (cross-reactivity)” value in data set [1] is recorded as 0.4%. In addition, the “biological activity (in words)” value in the data set on keratinocyte (vitamin D per se) is “biologically inactive”.
`C=C1/C(=C\C=C2/CCC[C@]3(C)[C@@H]([C@H](C)CCCC(C)(C)O)CC[C@@H]23)C[C@@H](O)C[C@@H]1O` [1,25-(OH)2 D, 1,25-Dihydroxyvitamin D3]: the “% differentiation” value in the data set with HL-60 cells (0.1 nM) amounted to 5%; in the data set with HL-60 cells (1 nM) it was 50%; in the data set on HL-60 cells (10 nM), 90%; in the data set with HL-60 cells (100 nM), 95%. Also, the “lowest concentration at which differentiation ability could be detected” value in the data set with HL-60 cells (HL-60, 48 hrs) is 0.1 nM. For the same compound, the EC50 with HL-60 cells (HL-60, 48 hrs, read-out: concentration for half maximal differentiation) stood at 1 nM. Besides, in the data set with HL-60 cells, the “HL-60 differentiation activity (in words)” value was “induces HL-60 cell differentiation in a dose-dependent manner; also recorded: promoted”. In data set [1], the “detection (cross-reactivity)” value is 4%. Besides, in data set [2], the “cornified envelope formation, no hydrolysis” value is listed as 207.6 % of control.
Regarding `C=C1CC[C@H](O)C/C1=C/C=C1\CCC[C@]2(C)[C@@H]([C@H](C)CCCC(C)(C)O)CC[C@@H]12` [25-D, 25-hydroxycholecalciferol], the “% differentiation” value with HL-60 cells (1 nM), in the data set on HL-60 cells (10 nM) and with HL-60 cells (100 nM) was 0% throughout. For the same compound, the figures for the “HL-60 differentiation activity (in words)” value in the data set with HL-60 cells and in the data set with HL-60 cells (listed as 25D) were “inactive at all concentrations” and “do not induce its differentiation”, respectively. Further, the “detection (cross-reactivity)” value in data set [1] was 100%.
`C=C1CC[C@H](O)C/C1=C/C=C1\CCC[C@]2(C)[C@@H]([C@H](C)CCCC(C)C)CC[C@@H]12` [Vitamin D3, cholecalciferol]: the “conversion in skin to 25-D (in words)” value in data set [3] is reported as “nor is it converted in the skin to 25-D”. The “% differentiation” value in the data set on HL-60 cells (0.1 nM), in the data set with HL-60 cells (1 nM), with HL-60 cells (10 nM) and in the data set on HL-60 cells (100 nM) was 0% in each case. In addition, the “keratinocyte prodifferentiating activity (in words)” value in the data set with keratinocyte (applied topically to skin) is “neither has keratinocyte prodifferentiating activity”.
